# Laboratory results taken from patent US20150259371A1, “METHODS AND COMPOUNDS FOR INHIBITING GLYCOSYLTRANSFERASES” (SIMON FRASER UNIVERSITY, priority 2010, published 2015).
# pEC50: −log10 of the molar value. Entries after “also recorded” stand apart in the source; their conditions may differ.
# Assays:
# [1] = system: O-GlcNAc levels in COS-7 cells; assay: Western blot of O-GlcNAc levels (CTD110.6) in treated COS-7 cells; format: cell-based, African green monkey
# Method: Cell culture: Cells were grown in an incubator at 37° C. and 5% CO2 atmosphere. Media and serum were purchased from Invitrogen. COS-7 cells were cultured in Dulbecco's modified Eagle's medium (DMEM) with 5% fetal bovine serum (FBS), and were typically 80-100% confluent prior to experimentation. HepG2, SK-N-SH, and EMEG32^−/− cells were cultured in Dulbecco's modified Eagle's medium (DMEM) with 5% fetal bovine serum (FBS), CHO cells in DMEMF-12 with 5% FBS and PC12 cells in DMEM with 5% FBS and 5% horse serum. Prior to experimentation, PC12 cells were plated at a density of 3-4×10^5 cells10 cm plate, which had been pre-treated with 5 μgcm^2 rat tail collagen (BD Biosciences). Cells were differentiated in DMEM containing 1% horse serum, in the presence of 2.5S mouse nerve growth factor (Chemicon) at a final concentration of 25 ng mL^−1, for 4-5 days prior to treatment. Other cell lines were 80-100% confluent prior to treatment. Following treatment with (Ac-)5SGlcNAc, using various conditions, cells were washed gently with PBS, lysed in SDS loading buffer and boiled for 10 minutes. Mouse hybridoma cells (obtained from the Developmental Studies Hybridoma Bank; antibody E7 for (:1-tubulin) were cultured in RPMI40 with 10% FBS. Prior to treatment with Ac-5SGlcNAc, hybridoma cells were cultured for 2 days in RPMI40 with 5% FBS, and during treatment in RPMI40 with no serum. Cells were collected, centrifuged (800 x g, 5 min) and the supernatant removed. Cells were washed with PBS, centrifuged, the pellet resuspended in SDS loading buffer and boiled. The supernatant after centrifugation, which contained the IgG antibody produced by the cells, was used for immunoprecipitation (see below for details).
# Westernlectin blots: Samples were run on 10% SDS polyacrylamide gels and transferred onto nitrocellulose membranes (Biorad). Membranes were blocked for 1 h in PBS containing 0.1% Tween-20 (PBS-T) containing 1% (unless otherwise stated) bovine serum albumin (BSA), and probed with the appropriate primary antibody or lectin in 1% BSA in PBS-T overnight at 4° C. Blots were washed for 1 hr with PBS-T, and blocked for a further 30 min with 1% BSA in PBS-T at room temperature. They were then probed with the appropriate horseradish peroxidise (HRP)-conjugated secondary antibodyprobe in 1% BSA in PBS-T at room temperature for 1 h, followed by washing in PBS-T for 1 h. Blots were developed with SuperSignal West Pico Chemiluminescent Substrate (Pierce) and exposed to CL-XPosure film (Pierce). Densitometry was performed using ImageQuant 5.2 (Molecular Dynamics), and fits to the data were made using GRAFIT^41.
# Antibodieslectins: O-GlcNAc levels were assessed primarily using CTD110.6 (Covance), but RL2 (Abcam) and HGAC85 (Abcam) were also tested. Actin was probed using JLA20 (Developmental Studies Hybridoma Bank). OGA levels were assessed using a polyclonal anti-OGA antibody which was a kind gift from Dr. Gerald Hart and OGT levels using H-300 (Santa Cruz Biotechnology). nup62 was probed using mAb 414 (Covance). Secondary antibodies employed (HRP-conjugated goat anti-mouse IgM, goat anti-mouse IgG, goat anti-chicken IgY and goat anti-rabbit IgG) were obtained from Santa Cruz Biotechnology. Biotinylated-ConA, PHA-L, SNA and MAA were purchased from EY Laboratories, and biotinylated-GNA from Vector Laboratories. HRP-conjugated streptavidin (Pierce) was used as a probe for the biotinylated lectins.
# Analogues (9, 10, 17-41) were tested in COS-7 cells, dosed at a final concentration of 50 μM in DMSO for 24 h. Following treatment, cells were washed with PBS, harvested into SDS-PAGE loading buffer and analyzed by western blot using standard procedures; blots were probed with the anti-O-GlcNAc antibody (CTD 110.6).
# [2] = system: UDP-sugar nucleotide pools in COS-7 cells; assay: UDP-sugar pools extracted from treated COS-7 cells, capillary electrophoresis; format: cell-based, African green monkey
# Method: Capillary electrophoresis (CE): CE was performed on a ProteomeLab PA800 (Beckman-Coulter) using fused silica capillaries of […]×44 cm (to detector). The running buffer was 40 mM Na2B4O7 (Sigma), pH 9.5, containing 1.0% (wv) polyethylene glycol (MW 20,000; Fluka) and filtered prior to use. The capillary was conditioned by washing with 1 N NaOH (2 min, 20 psi), 18 MΩ H2O (3 min, 20 psi) and running buffer (5 min, 40 psi). After injecting a short (15 nL) H2O plug, samples were electrostatically introduced and pre-concentrated at the anode by applying a potential of -0.5 kV for 10 s according to the field-amplified sample injection technique described by Chien and Burgi^39. Electrophoresis was carried out at a constant voltage of 30 kV and capillary temperature of 22° C. Electropherograms were derived by measuring the absorbance at 254 (+/−10) nm at a rate of 4 Hz. Peaks were integrated using 32 Karat 5.0 software (Beckman-Coulter) and all peaks were normalized to the GDP-Glc internal standard.
# Extraction of nucleotide sugars from cell lysates: COS-7 cells, on 10 cm plates, were treated with 0, 50, 250 or 1000 μM Ac-5SGlcNAc for 24 h; each condition was performed in triplicate. Cells were washed gently with PBS prior to the addition of 1 mL PBS containing 10 mM EDTA. Cells were incubated at 37° C. for […], the cells scraped from the plate, and pelleted by centrifugation (1000 rpm, 10 min, 4° C.). Cell pellets were immediately lysed by the addition of 750 μL 75% (vv) ethanol (−20° C.) and sonicated using a W-375 ultrasonic processor (Heat Systems Ultrasonics, Inc.). Insoluble material was removed by centrifugation (14,000 rpm, 15 min, 4° C.) and the supernatant was snap frozen and lyophilized^44,45. The crude extract was spiked with GDP-Glc (200 pmol) as an internal standard, dissolved in 0.5 mL 18 MΩ H2O and nucleotide sugars extracted using Envi-Carb graphite solid-phase extraction cartridges (200 mg) (Supelco) as described by Räbinä et al^38. Briefly, Envi-Carb cartridges were conditioned with 80% (vv) CH3CN and 20% 0.1% (vv) TFA (3 mL), followed by 18 MΩ H2O (6 mL), before samples were applied. After passing the samples through the SPE cartridge, the cartridge was sequentially washed with 2 mL of each of 18 MΩ H2O, 25% (vv) CH3CN, and 50 mM triethylammonium acetate (TEAA), pH 7.0. Sugar nucleotides were eluted with 3×1 mL 25% CH3CN in 50 mM TEAA, pH 7.0, passed through a 0.22 μm filter (Millipore), lyophilized, and stored at −20° C. until analysis. Extracted sugar nucleotides were dissolved in 200 μL 18 MΩ H2O and an aliquot was diluted 1:4 prior to characterization by CE using a method adapted from Feng et al^46.
compound,measurement,setting,value
"CC(=O)NC1C(OC(C)=O)SC(COC(C)=O)C(OC(C)=O)C1OC(C)=O [Compound 9, N-Acetyl-1,3,4,6-tetra-O-acetyl-α-D-5-thio-glucosamine]",O-GlcNAc levels on dosing for 5 days,"[1]; 50 μM, 5 days",O-GlcNAc levels dropped in the first day and remained low
same,"O-GlcNAc levels, time course","[1]; 50 μM, hours, listed as Ac-5SGlcNAc",almost no O-GlcNAc being detectable after 24 hours; also recorded: O-GlcNAc levels diminish to a low level by 24 h
same,"effect on O-GlcNAc levels, dose response",[1]; 24 hours,decreased O-GlcNAc levels in a dose-dependent fashion
same,pEC50,"[1]; Chlorocebus sabaeus, 24 h, densitometry of western blot, read-out: EC50 for reduction of O-GlcNAc levels",5.30
same,time for O-GlcNAc to return to basal levels after change to media without compound,[1]; after 50 μM for 24 h,≤ 24 h
same,UDP-GlcNAc levels relative to basal,[2]; 50 μM,more than 60 % of basal levels
same,UDP-Glc and UDP-Gal levels in cells,"[2]; COS-7, 0-1000 μM, 24 h",uridine diphosphoglucose and uridine diphosphogalactose levels are unaffected
same,UDP-GlcNAc levels in cells,"[2]; COS-7, 0-1000 μM, 24 h",small decrease in UDP-GlcNAc levels
same,amount of UDP-5SGlcNAc in cells,"[2]; COS-7, 0-1000 μM, 24 h",dose dependent increase in the amount of UDP-5SGlcNAc in cells
